“And” between values parts separate entries of the source, which are not always exact repeats. Equal entries are not always repeated.
Assays:
P-gp = target: T1, P-gp (Homo sapiens, UniProt P08183); experiment: In vitro P-gp interaction study in Caco-2 cells; type: in vitro ADME
T1 construct: endogenous in cells; host or cells: Caco-2
Source text: Except as a strong CYP3A inducer, rifampin is also recognized as a substrate and inducer of permeability glycoprotein (P-gp), an important ATP-binding cassette transporter, upon multiple dosing. […] Therefore, the interaction between famitinib and P-gp as well as OATP needs to be considered, to evaluate whether the changes of famitinib exposure caused by the strong CYP3A inducer are affected.

[1] = cited from earlier work
CYP3A4 = tested on: CYP3A4; parameters: method as in PMID 23126373; details: recombinant human isozymes, microsomal chemical inhibition; cited from earlier work
[2] = Safety and tolerability (treatment emergent adverse events, CTCAE v5.0) in the DDI study; details: for Subjects with treatment-related TEAEs: famitinib alone Days 1–9 (1/21), rifampin alone Days 10–15 (3/21), combination Days 16–23 (4/20)
Experimental: Safety and tolerability were evaluated by monitoring vital signs, physical examination, laboratory tests, electrocardiogram (ECG) and adverse events (AEs). Vital signs, including body temperature, blood pressure (BP) and heart rate, were measured and ECG were performed during baseline period, before drug administration and at 4, 24, 48, 192 h after famitinib administration. Clinical laboratory tests were conducted at screening, day 9, 15, and prior to discharge. AEs, including all subjective symptoms reported by subjects and objective signs observed by clinical investigators, were collected after dosing throughout the study.
Safety parameters of the safety analysis sets were summarized using descriptive statistics. AEs were graded according to Common Terminology Criteria for Adverse Events (CTCAE, version 5.0) and coded using Medical Dictionary for Regulatory Activities (MedDRA, version 19.0) System Organ Class (SOC) and Preferred Terms (PT).

[3] = Drug-drug interaction study: plasma pharmacokinetics of single oral famitinib 25 mg alone and with steady-state rifampin 600 mg once daily (LC-MS/MS, noncompartmental analysis); details: for CL/F / AUC(0-t) / AUC(0-inf) / Cmax / k el: geometric mean (geometric CV, %); for AUC(0-t): AUC0–t; for AUC(0-inf): AUC0–∞; for Tmax: median (min, max); for k el: λz
Experimental: The DDI study was an open-label, self-contrast study comprising the following two periods: period 1 (Days 1–9), administration of a single oral dose of famitinib 25 mg alone in the morning of study day 1; period 2 (Days 10–23), repeated administration of oral rifampin 600 mg once daily for 14 days in the morning of days 10–23, and co-administration of a single dose of famitinib 25 mg on Day 16. […] In the two periods, oral doses of famitinib were administered after an overnight fast (at least 10 h) with 240 mL room-temperature water. Subjects were forbidden to drink water within 1 h before and after taking famitinib, and the lunch and dinner were provided at 4 h and 8 h,, respectively, post-drug administration (Day 1, 16). In the second period, subjects received rifampin in the fasting state with 240 mL water and had regular meals 1 h after the dose. Cigarettes, caffeinated drinks and alcoholic products were prohibited during the whole trial period, and when the subjects stayed in the study center (Days 1–4, 10–23), the only food permitted was prepared and provided at predetermined times by the researchers.
Samples were centrifuged within 1 h at 1500xg for 10 min at 4℃ to separate the plasma, which was divided into two aliquots (drug monitoring at least 800ul and backup) and stored at – 80 °Cuntil analysis.
Plasma concentrations of famitinib were analysed using a validated liquid chromatography-tandem mass spectrometry (LC–MS/MS) method [9, 15] at Frontage Laboratories Co., Ltd (Shanghai, China). The calibration curve for famitinib covered ranges of 0.050-100 ng/ml. The low limit of qualification (LLOQ) was 0.050 ng/ml.
Pharmacokinetic (PK) parameters for famitinib in plasma were estimated by noncompartmental analysis using Phoenix WinNonlin (version 7.0, Pharsight Corporation, St Louis, MO, USA). The primary endpoints were the maximum plasma famitinib concentration (Cmax), the area under the plasma concentration–time curve from time 0 to the last measured time point (AUC0–t), and the area under the plasma concentration–time curve from time 0 to infinity (AUC0–∞). The secondary PK parameters included time to Cmax (Tmax) and the elimination half-life (T1/2), the terminal exponential rate constant (λz), the apparent total body clearance (CL/F). Cmax and Tmax were observed directly from the original concentration–time data.
All subjects who received the study drug and for whom at least one PK parameter data was available were included in the PK analysis sets. The safety analysis sets included subjects who received at least one dose of famitinib or rifampin. Statistical analysis was performed using SAS 9.4 (SAS Inc., Cary, NC, USA). […] The measurement data were expressed as mean ± standard deviation (SD), and categorical variables were described by the percentage.

[4] = cited from earlier work; for Decrease of AUC when administered simultaneously with rifampin / Decrease of Cmax when administered simultaneously with rifampin: ref 21 (imitinib), 22 (gefitinib), 23 (erlotinib), 24 (afatinib)
[5] = famitinib 25 mg with rifampin 600 mg vs alone
[6] = famitinib + rifampin period, individual subjects, LLOQ 0.050
[7] = famitinib alone period, individual subjects
[8] = male, human, plasma, po, 25 mg, famitinib 25 mg + rifampin, N = 20
[9] = male, human, plasma, po, 25 mg, famitinib 25 mg alone, N = 21
[10] = healthy volunteers, vs sunitinib alone

T1 sequence (P08183 whole entry): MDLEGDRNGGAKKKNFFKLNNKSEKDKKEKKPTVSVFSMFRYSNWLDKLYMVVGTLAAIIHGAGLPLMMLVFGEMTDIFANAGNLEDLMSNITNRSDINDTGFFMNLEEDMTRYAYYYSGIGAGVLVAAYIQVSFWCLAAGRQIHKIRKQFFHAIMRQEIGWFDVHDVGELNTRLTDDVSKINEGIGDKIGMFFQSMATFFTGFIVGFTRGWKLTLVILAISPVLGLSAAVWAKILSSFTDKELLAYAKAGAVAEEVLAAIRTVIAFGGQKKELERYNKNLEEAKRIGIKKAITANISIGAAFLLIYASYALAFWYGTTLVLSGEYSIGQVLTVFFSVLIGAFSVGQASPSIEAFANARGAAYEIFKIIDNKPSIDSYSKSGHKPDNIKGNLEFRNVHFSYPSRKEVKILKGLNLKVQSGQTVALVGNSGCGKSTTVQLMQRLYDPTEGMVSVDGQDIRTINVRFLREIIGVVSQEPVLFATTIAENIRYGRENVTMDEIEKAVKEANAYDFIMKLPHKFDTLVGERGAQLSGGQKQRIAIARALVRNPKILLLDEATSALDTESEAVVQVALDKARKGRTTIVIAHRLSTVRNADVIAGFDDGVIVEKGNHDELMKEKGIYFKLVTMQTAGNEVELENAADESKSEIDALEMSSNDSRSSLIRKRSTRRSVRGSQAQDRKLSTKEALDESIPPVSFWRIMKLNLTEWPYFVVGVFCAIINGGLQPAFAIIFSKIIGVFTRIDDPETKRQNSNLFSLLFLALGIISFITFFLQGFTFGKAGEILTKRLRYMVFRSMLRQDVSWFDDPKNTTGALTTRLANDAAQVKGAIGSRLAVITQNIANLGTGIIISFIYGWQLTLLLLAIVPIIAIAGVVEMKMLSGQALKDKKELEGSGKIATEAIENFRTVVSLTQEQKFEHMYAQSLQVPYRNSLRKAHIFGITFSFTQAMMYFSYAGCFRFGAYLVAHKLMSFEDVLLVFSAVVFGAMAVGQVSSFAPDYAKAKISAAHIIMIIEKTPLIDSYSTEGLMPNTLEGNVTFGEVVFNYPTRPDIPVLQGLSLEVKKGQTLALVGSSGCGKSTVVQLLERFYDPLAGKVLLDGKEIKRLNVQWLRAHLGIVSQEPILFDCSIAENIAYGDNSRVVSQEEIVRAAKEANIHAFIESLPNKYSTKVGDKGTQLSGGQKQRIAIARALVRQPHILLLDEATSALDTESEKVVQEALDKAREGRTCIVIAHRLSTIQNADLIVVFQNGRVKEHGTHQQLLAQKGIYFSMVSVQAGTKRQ

Question: With `CCN(CC)CCN1CCc2[nH]c(/C=C3\C(=O)Nc4ccc(F)cc43)c(C)c2C1=O` [famitinib, Famitinib malate] as the compound, how does the “P-gp substrate, inducer or inhibitor” value (P-gp) read?
Answer: The value was “neither a substrate, an inducer or inhibitor”.

Question: And the “Mean time to maximum concentration (Tmax)” value ([1]; 25 mg famitinib, healthy subjects)?
Answer: Its value is 5.9 ± 3.8 h.

Question: And the “Time of peak concentration (Cmax) after a single oral administration” value ([1]; 4–27 mg famitinib, cancer patients)?
Answer: The value was 3.3 to 5.3 h.

Question: And the “Effect of food on the pharmacokinetics” value [1]?
Answer: Its value is “minimal effect”.

Question: What about the “Accumulation ratio (Day28/Day1) of AUC0–24 h” value ([1]; continuous dosing) of the same compound?
Answer: The value was 2.53.

Question: And the “Accumulation ratio (Day28/Day1) of Cmax” value ([1]; continuous dosing)?
Answer: Its value is 2.15.

Question: What about the “Elimination via biliary-fecal route” value ([1]; human) of the same compound?
Answer: Its value is “approximately 56.3 % of the administered dose”.

Question: And the “Pathway most important to metabolic clearance” value (CYP3A4)?
Answer: The value was “CYP3A4-mediated N-desethylation is most important”.

Question: What about the “Subjects with treatment-related TEAEs” value [2] of the same compound?
Answer: The value was 4.8%.

Question: What about the Tolerability ([2]; single dose famitinib 25 mg, alone and in combination with multiple doses of rifampin) of the same compound?
Answer: Its Tolerability is “well tolerated”.

Question: And the “Subjects reporting treatment emergent adverse events (TEAEs)” value ([2]; whole study, 8/21 subjects, all grade 1–2)?
Answer: Its value is 38.1%.

Question: What about the CL/F ([3]; famitinib 25 mg + rifampin, N = 20) of the same compound?
Answer: The CL/F was 61.4 (16.5) L/h.

Question: And the CL/F ([3]; famitinib 25 mg alone, N = 21)?
Answer: Its CL/F is 18.9 (18.0) L/h.

Question: What about the “Decrease of geometric mean AUC0–t in the presence of rifampin” value [3, 5] of the same compound?
Answer: The value was 69%.

Question: What about the “Decrease of geometric mean AUC0–∞ in the presence of rifampin” value [3, 5] of the same compound?
Answer: Its value is 69%.

Question: And the “Decrease of geometric mean Cmax in the presence of rifampin” value [3, 5]?
Answer: The value was 48%.

Question: And the “Plasma concentration of famitinib, 144h” value [3, 6]?
Answer: Its value is “BLQ<0.050 ng / mL”.

Question: What about the “Plasma concentration of famitinib, 192h” value [3, 6] of the same compound?
Answer: Its value is “BLQ<0.050 ng / mL”.

Question: What about the “Plasma concentration of famitinib, before dosing” value [3, 6] of the same compound?
Answer: Its value is “BLQ<0.050 ng / mL”.

Question: And the “Plasma concentration of famitinib, 1h” value [3, 7]?
Answer: The value was 12.172 ng/mL and 10.070 ng/mL and 23.342 ng/mL and 11.725 ng/mL and 7.749 ng/mL and 13.952 ng/mL and 8.453 ng/mL and 16.495 ng/mL and 11.559 ng/mL and 9.713 ng/mL and 14.845 ng/mL and 9.794 ng/mL and 13.641 ng/mL and 7.456 ng/mL and 5.075 ng/mL.

Question: And the “Plasma concentration of famitinib, 2h” value [3, 7]?
Answer: The value was 19.290 ng/mL and 11.263 ng/mL and 27.171 ng/mL and 17.301 ng/mL and 11.179 ng/mL and 19.862 ng/mL and 16.456 ng/mL and 17.403 ng/mL and 19.212 ng/mL and 16.738 ng/mL and 25.161 ng/mL and 11.223 ng/mL and 13.668 ng/mL and 15.742 ng/mL and 7.198 ng/mL.

Question: What about the “Plasma concentration of famitinib, 3h” value [3, 7] of the same compound?
Answer: Its value is 24.870 ng/mL and 24.032 ng/mL and 35.652 ng/mL and 17.196 ng/mL and 13.891 ng/mL and 21.638 ng/mL and 20.909 ng/mL and 26.523 ng/mL and 20.328 ng/mL and 19.378 ng/mL and 25.658 ng/mL and 13.587 ng/mL and 23.069 ng/mL and 22.375 ng/mL and 13.449 ng/mL.

Question: What about the “Plasma concentration of famitinib, 4h” value [3, 7] of the same compound?
Answer: Its value is 28.028 ng/mL and 28.292 ng/mL and 40.156 ng/mL and 20.043 ng/mL and 16.081 ng/mL and 19.854 ng/mL and 21.159 ng/mL and 24.187 ng/mL and 24.994 ng/mL and 22.750 ng/mL and 36.134 ng/mL and 11.368 ng/mL and 18.316 ng/mL and 23.577 ng/mL and 15.599 ng/mL.

Question: And the “Plasma concentration of famitinib, 5h” value [3, 7]?
Answer: Its value is 34.268 ng/mL and 39.992 ng/mL and 39.262 ng/mL and 34.731 ng/mL and 23.153 ng/mL and 38.641 ng/mL and 37.246 ng/mL and 34.840 ng/mL and 39.863 ng/mL and 36.023 ng/mL and 38.105 ng/mL and 23.878 ng/mL and 27.444 ng/mL and 47.892 ng/mL.

Question: What about the “Plasma concentration of famitinib, 6h” value [3, 7] of the same compound?
Answer: Its value is 43.837 ng/mL and 41.218 ng/mL and 38.122 ng/mL and 30.476 ng/mL and 37.003 ng/mL and 33.261 ng/mL and 32.099 ng/mL and 44.461 ng/mL and 40.451 ng/mL and 44.411 ng/mL and 30.717 ng/mL and 31.790 ng/mL and 38.642 ng/mL.

Question: What about the “Plasma concentration of famitinib, 8h” value [3, 7] of the same compound?
Answer: The value was 36.756 ng/mL and 37.274 ng/mL and 37.931 ng/mL and 31.453 ng/mL and 34.655 ng/mL and 28.227 ng/mL and 26.193 ng/mL and 38.443 ng/mL and 33.433 ng/mL and 40.722 ng/mL and 30.892 ng/mL and 27.531 ng/mL and 41.552 ng/mL.

Question: What about the “Plasma concentration of famitinib, before dosing” value ([3]; famitinib alone period, individual subjects, LLOQ 0.050) of the same compound?
Answer: The value was “BLQ<0.050 ng / mL”.

Question: What about the concentration at 6 h ([3]; human, plasma, oral, 25 mg, Plasma concentration of famitinib, famitinib alone period, individual subjects) of the same compound?
Answer: The concentration at 6 h was 44.3 ng/mL.

Question: And the concentration at 8 h ([3]; human, plasma, oral, 25 mg, Plasma concentration of famitinib, 8h, famitinib alone period, individual subjects)?
Answer: Its concentration at 8 h is 42.1 ng/mL.

Question: What about the concentration at 12 h ([3]; human, plasma, oral, 25 mg, Plasma concentration of famitinib, 12h, famitinib alone period, individual subjects) of the same compound?
Answer: The concentration at 12 h was 22.5 ng/mL.

Question: What about the concentration at 24 h ([3]; human, plasma, oral, 25 mg, Plasma concentration of famitinib, 24h, famitinib alone period, individual subjects) of the same compound?
Answer: Its concentration at 24 h is 14 ng/mL.

Question: And the concentration at 48 h ([3]; human, plasma, oral, 25 mg, Plasma concentration of famitinib, 48h, famitinib alone period, individual subjects)?
Answer: The concentration at 48 h was 7.26 ng/mL.

Question: What about the concentration at 6 h ([3]; human, plasma, oral, Plasma concentration of famitinib, famitinib + rifampin period, individual subjects) of the same compound?
Answer: Its concentration at 6 h is 22 ng/mL.

Question: What about the concentration at 144 h ([3]; human, plasma, oral, Plasma concentration of famitinib, 144h, famitinib + rifampin period, individual subjects, LLOQ 0.050) of the same compound?
Answer: Its concentration at 144 h is 0.063 ng/mL.

Question: And the half-life ([3]; male, human, plasma, po, 25 mg)?
Answer: The half-life was 33.9 h.

Question: What about the AUC(0-t) [3, 8] of the same compound?
Answer: Its AUC(0-t) is 405 ng·h/mL.

Question: And the AUC(0-t) [3, 9]?
Answer: The AUC(0-t) was 1300 ng·h/mL.

Question: What about the AUC(0-inf) [3, 8] of the same compound?
Answer: Its AUC(0-inf) is 407 ng·h/mL.

Question: What about the AUC(0-inf) [3, 9] of the same compound?
Answer: The AUC(0-inf) was 1320 ng·h/mL.

Question: And the Cmax ([3]; male, human, plasma, po, 25 mg, famitinib 25 mg + steady-state rifampin 600 mg once daily, N = 20)?
Answer: The Cmax was 20.1 ng/mL.

Question: What about the Cmax ([3]; male, human, plasma, po, 25 mg, famitinib 25 mg single oral dose alone, N = 21) of the same compound?
Answer: The Cmax was 38.7 ng/mL.

Question: What about the Tmax [3, 8] of the same compound?
Answer: Its Tmax is 5.5 h.

Question: And the Tmax [3, 9]?
Answer: The Tmax was 6 h.

Question: And the k el [3, 8]?
Answer: Its k el is 1.08e-05 s⁻¹.

Question: What about the k el [3, 9] of the same compound?
Answer: The k el was 5.83e-06 s⁻¹.

Question: For `CCN(CC)CCNC(=O)c1c(C)[nH]c(/C=C2\C(=O)Nc3ccc(F)cc32)c1C` [sunitinib], which “Fold reduction in AUC on coadministration with rifampin” value [4, 10] is on record?
Answer: Its value is 4.8 fold.

Question: What about the “Fold reduction in Cmax on coadministration with rifampin” value [4, 10] of the same compound?
Answer: The value was 2.3 fold.

Question: Which results are given for `C#Cc1cccc(Nc2ncnc3cc(OCCOC)c(OCCOC)cc23)c1` [erlotinib]?
Answer: Decrease of AUC when administered simultaneously with rifampin [4]: 69%; Decrease of Cmax when administered simultaneously with rifampin [4]: 39%

Question: Which results are given for `CN(C)C/C=C/C(=O)Nc1cc2c(Nc3ccc(F)c(Cl)c3)ncnc2cc1O[C@H]1CCOC1` [afatinib]?
Answer: Decrease of AUC when administered simultaneously with rifampin [4]: 34%; Decrease of Cmax when administered simultaneously with rifampin [4]: 22%

Question: For `COc1cc2ncnc(Nc3ccc(F)c(Cl)c3)c2cc1OCCCN1CCOCC1` [gefitinib], which “Decrease of AUC when administered simultaneously with rifampin” value [4] is on record?
Answer: The value was 83%.

Question: What about the “Decrease of Cmax when administered simultaneously with rifampin” value [4] of the same compound?
Answer: The value was 65%.

Question: Which “Decrease of AUC when administered simultaneously with rifampin” value [4] does the source give for `Cc1ccc(NC(=O)c2ccc(CN3CCN(C)CC3)cc2)cc1Nc1nccc(-c2cccnc2)n1` [imitinib] here?
Answer: Its value is 74%.

Question: And the “Decrease of Cmax when administered simultaneously with rifampin” value [4]?
Answer: The value was 54%.

Question: Which “Subjects with treatment-related TEAEs” value [2] does the source give for `CO[C@H]1/C=C/O[C@@]2(C)Oc3c(C)c(O)c4c(O)c(c(/C=N/N5CCN(C)CC5)c(O)c4c3C2=O)NC(=O)/C(C)=C\C=C\[C@H](C)[C@H](O)[C@@H](C)[C@@H](O)[C@@H](C)[C@H](OC(C)=O)[C@@H]1C` [rifampin, Rifampicin] here?
Answer: The value was 14.3%.

From PMC9556364, “The effect of rifampin on the pharmacokinetics of famitinib in healthy subjects” (Cancer Chemotherapy and Pharmacology, 2022)
